Experimental data taken from US20090012178A1, “Benzoxazocines and Their Therapeutic Use” (priority 2005, published 2009).
Like-named read-outs stand apart in the source and are kept apart here.

Experiments:
cytochrome P450 enzymes = assay: Metabolism by cytochrome P450 enzymes; format: in vitro ADME
CYP 2D6 = CYP 2D6 (Homo sapiens, UniProt P10635); assay: CYP 2D6 inhibition, substrate based assay; format: in vitro ADME
Protocol: (§1) CYP 2D6 inhibition assays were conducted according to the method of Ono et al. (1996—Xenobiotica, 26: 681-693). 5-HT Transporter binding assays were conducted according to the method of Tatsumi et al. (1997—Eur. J. Pharmacol., 340: 249-258). NA Transporter binding assays were conducted according to the method of Pacholczyk et al. (1991—Nature, 350: 350-354).

NA Transporter = NA Transporter (Homo sapiens, UniProt P23975); assay: NA Transporter binding assay (NRI)
NA Transporter, sequence (P23975 whole entry): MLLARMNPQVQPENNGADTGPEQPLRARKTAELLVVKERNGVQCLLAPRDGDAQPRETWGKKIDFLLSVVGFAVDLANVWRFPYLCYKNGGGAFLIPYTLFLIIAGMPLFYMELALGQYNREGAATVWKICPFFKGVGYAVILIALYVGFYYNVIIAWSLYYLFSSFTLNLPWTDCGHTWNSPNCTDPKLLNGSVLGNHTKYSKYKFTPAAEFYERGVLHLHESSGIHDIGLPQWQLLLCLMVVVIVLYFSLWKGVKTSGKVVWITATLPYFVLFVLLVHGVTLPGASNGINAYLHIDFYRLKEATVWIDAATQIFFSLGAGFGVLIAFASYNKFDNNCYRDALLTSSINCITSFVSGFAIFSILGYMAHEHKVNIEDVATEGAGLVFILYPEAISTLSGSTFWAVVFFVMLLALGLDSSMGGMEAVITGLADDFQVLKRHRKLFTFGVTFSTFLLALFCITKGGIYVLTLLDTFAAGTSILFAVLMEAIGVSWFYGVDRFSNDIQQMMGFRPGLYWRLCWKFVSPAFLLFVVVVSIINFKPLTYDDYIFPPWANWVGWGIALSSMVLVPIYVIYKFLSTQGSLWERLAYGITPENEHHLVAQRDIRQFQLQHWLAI
Protocol: as §1

Pharmacokinetic profile = format: in vivo; conditions: compared with nefopam
[1] = Morphine challenge assay (morphine-induced emesis in ferrets); format: in vivo, ferret; conditions: for % Reduction in no of retches/vomits: 3 mg/kg ip, 60 min before morphine 0.125 mg/Kg s.c., * = statistical significance; for anti-emetic activity in the morphine-induced emesis model (in words): ferrets
Protocol: In this respect, compounds of the invention retain the low side-effect potential of nefopam while having greater efficacy and more favourable pharmacokinetic parameters for chronic use.
Morphine was administered (0.125 mg/Kg s.c.) to albino or fitch male ferrets (0.9-1.7 kg) to induce emesis. Emesis was characterized by rhythmic abdominal contractions which were either associated with the oral expulsion of solid or liquid material from the gastrointestinal tract (ie vomiting) or not associated with the passage of material (i.e. retching movements). The number of highly distinctive abdominal contractions was counted.
The test substances and vehicle were administered by intraperitoneal injection 60 min before morphine administration. Results are given in Table 4 (*denotes statistical significance achieved).

[2] = Formalin-induced paw licking in mouse; format: in vivo; conditions: * = statistical significance; for Nociception, Early Phase: licking time 0 to 5 minutes after formalin; for Nociception, Late Phase: licking time 20 to 30 minutes after formalin
Protocol: Compounds of the invention have also been evaluated in the formalin-induced paw licking model in mice. Compounds were evaluated for both an early stage response and a late stage response against duloxetine and nefopam as controls.
Inflammation was induced by subplantar injection of a 5% formalin solution (0.02 ml) into the mouse right hindpaw (20-25 g male Rj: NMRI). Hindpaw licking time was continuously recorded in a blinded fashion between 0 to 5 minutes (early phase) and between 20 to 30 minutes (late phase) after formalin injection (Hunskaar et al., 1985—J. Neurosci. Methods; 14:69-76).
The test substances and vehicle were orally administered 60 min before formalin injection. Results are given in Table 3 (nt=not tested; *denotes statistical significance achieved).

5-HT Transporter = 5-HT Transporter (Homo sapiens, UniProt P31645); assay: 5-HT Transporter binding assay (SRI)
5-HT Transporter, sequence (P31645 whole entry): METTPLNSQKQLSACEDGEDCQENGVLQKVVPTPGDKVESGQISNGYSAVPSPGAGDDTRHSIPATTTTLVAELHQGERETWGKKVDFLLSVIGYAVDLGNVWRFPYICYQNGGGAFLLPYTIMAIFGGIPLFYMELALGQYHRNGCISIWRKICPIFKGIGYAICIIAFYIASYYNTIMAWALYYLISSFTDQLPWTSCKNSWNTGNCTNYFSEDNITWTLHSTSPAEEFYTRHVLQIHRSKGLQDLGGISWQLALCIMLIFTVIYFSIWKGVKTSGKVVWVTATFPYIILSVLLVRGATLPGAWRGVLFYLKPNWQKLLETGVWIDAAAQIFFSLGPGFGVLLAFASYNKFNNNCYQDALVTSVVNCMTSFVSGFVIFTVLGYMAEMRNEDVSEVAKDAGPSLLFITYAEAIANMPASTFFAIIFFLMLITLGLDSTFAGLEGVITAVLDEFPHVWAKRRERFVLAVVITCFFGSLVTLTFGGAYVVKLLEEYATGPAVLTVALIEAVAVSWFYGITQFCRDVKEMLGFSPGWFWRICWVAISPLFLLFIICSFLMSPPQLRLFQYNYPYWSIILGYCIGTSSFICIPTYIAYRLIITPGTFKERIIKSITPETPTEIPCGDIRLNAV
Protocol: as §1

[3] = Mouse hotplate model of acute analgesia; format: in vivo; conditions: for Paw Latency (Sec) above control: 60 min before testing, * = statistical significance
Protocol: Compounds of the invention have also been evaluated in the mouse hotplate model of acute analgesia. Mice placed on a metallic hot plate will respond by paw licking or by jumping up from the plate (Eddy et al., 1950—J. Pharmacol. Exp. Ther.; 98:121-137). Analgesics increase nociceptive reaction latency.
Mice (17-23 g male Swiss mice ICO: OF1) were placed on a metallic hot plate maintained at 56±0.2° C. The nociceptive reaction latency, characterized by a licking reflex of the forepaws or by a jumping off the hot plate, was recorded. Plate heat cut-off time was 30 seconds. The test substances and vehicle were orally administered 60 min before testing. Results are given in Table 2 (nt=not tested; *denotes statistical significance achieved).

Behavioural Despair Test = format: in vivo, mouse; conditions: 30 minutes before the test, * = statistical significance
Protocol: Compounds of the invention have been evaluated in the Behavioural Despair Test, a model which detects antidepressant activity.
The Behavioural Despair Test was conducted according to the method of Porsolt et al., (1977—Arch. Int. Pharmacodyn., 229:327-336). Mice forced to swim in a situation from which they cannot escape rapidly become immobile. Antidepressants decrease the duration of immobility.
Mice (20-27 g male Rj: NMRI) were individually placed in a cylinder (height=24 cm, diameter=13 cm) containing 10 cm water (22° C.), from which they cannot escape. The mice were placed in the water for 6 minutes and the duration of immobility during the last 4 minutes was measured. All compounds were administered i.p. 30 minutes before the test, and compared with a vehicle control group. Results are given in Table 5 (nt=not tested; *denotes statistical significance achieved).

[4] = read-out: CYP 2D6 inhibition IC50

CYP 2D6, sequence (P10635 whole entry): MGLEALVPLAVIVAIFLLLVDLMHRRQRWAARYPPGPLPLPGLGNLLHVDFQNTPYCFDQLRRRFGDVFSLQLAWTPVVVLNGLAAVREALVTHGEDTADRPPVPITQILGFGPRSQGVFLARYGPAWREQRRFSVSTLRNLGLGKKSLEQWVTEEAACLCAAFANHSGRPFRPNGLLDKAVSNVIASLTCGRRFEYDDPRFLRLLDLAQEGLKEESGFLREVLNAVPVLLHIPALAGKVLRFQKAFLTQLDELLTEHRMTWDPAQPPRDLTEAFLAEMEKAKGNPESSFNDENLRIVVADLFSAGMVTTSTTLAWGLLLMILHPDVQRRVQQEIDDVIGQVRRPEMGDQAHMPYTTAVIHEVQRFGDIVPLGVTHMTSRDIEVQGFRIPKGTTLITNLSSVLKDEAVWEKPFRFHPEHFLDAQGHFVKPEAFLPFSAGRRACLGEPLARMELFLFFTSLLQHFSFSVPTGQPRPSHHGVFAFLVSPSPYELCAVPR

Question: With `COc1cccc(C2OCCN(C)Cc3cc(C#N)ccc32)c1` (single isomer, unassigned) [Example 1] as the compound, how does the “metabolism by cytochrome P450 enzymes (in words)” value (cytochrome P450 enzymes) read?
Answer: metabolised by a range of cytochrome P450 enzymes

Question: And the IC50 (CYP 2D6)?
Answer: 5.7 µM

Question: And the IC50 (NA Transporter; read-out: IC50 vs NRI)?
Answer: 0.4 µM

Question: What about the “pharmacokinetic profile (in words)” value (Pharmacokinetic profile) of the same compound?
Answer: greatly improved pharmacokinetic profile over the parent compound nefopam

Question: And the “% Reduction in no of retches/vomits” value [1]?
Answer: 91%*

Question: What about the “anti-emetic activity in the morphine-induced emesis model (in words)” value [1] of the same compound?
Answer: anti-emetic

Question: What about the “Nociception, Early Phase” value ([2]; 30 mg/kg po) of the same compound?
Answer: −49%

Question: What about the “Nociception, Late Phase” value ([2]; 30 mg/kg po) of the same compound?
Answer: −46%

Question: What about the “Nociception, Early Phase” value ([2]; 60 mg/kg po) of the same compound?
Answer: −75%*

Question: What about the “Nociception, Late Phase” value ([2]; 60 mg/kg po) of the same compound?
Answer: −88%*

Question: And the IC50 (5-HT Transporter)?
Answer: 0.0089 µM

Question: And the “efficacy in the mouse hot-plate model (in words)” value [3]?
Answer: greater efficacy than the racemate

Question: And the “Paw Latency (Sec) above control” value ([3]; 10 mg/kg po)?
Answer: 9* Sec

Question: And the “Paw Latency (Sec) above control” value ([3]; 30 mg/kg po)?
Answer: 5 s

Question: And the “Paw Latency (Sec) above control” value ([3]; 60 mg/kg po)?
Answer: 7* Sec

Question: What about the “Duration of Immobility (% change from ctrl)” value (Behavioural Despair Test; 10 mg/kg ip) of the same compound?
Answer: −24* %

Question: And the “Duration of Immobility (% change from ctrl)” value (Behavioural Despair Test; 20 mg/kg ip)?
Answer: −8%

Question: What about the “Duration of Immobility (% change from ctrl)” value (Behavioural Despair Test; 40 mg/kg ip) of the same compound?
Answer: −61* %

Question: What about the “Duration of Immobility (% change from ctrl)” value (Behavioural Despair Test; 80 mg/kg ip) of the same compound?
Answer: −85* %

Question: What does the source list for `COc1cccc(C2OCCN(C)Cc3cc(C4CC4)ccc32)c1` (single isomer, unassigned) [Example 3, 8-cyclopropyl-5-methyl-1-(3-methoxy)phenyl-1,3,4,6-tetrahydro-5H-benz[f]-2,5-oxazocine]?
Answer: IC50 (CYP 2D6; [4]): 1.1 µM; IC50 (NA Transporter): 0.046 µM; % Reduction in no of retches/vomits [1]: 89%*; anti-emetic activity in the morphine-induced emesis model (in words) [1]: anti-emetic; Nociception, Early Phase ([2]; 30 mg/kg po): −45%; Nociception, Late Phase ([2]; 30 mg/kg po): −51%; Nociception, Early Phase ([2]; 60 mg/kg po): −56%*; Nociception, Late Phase ([2]; 60 mg/kg po): −73%*; IC50 (5-HT Transporter): 0.0052 µM; Paw Latency (Sec) above control ([3]; 10 mg/kg po): 3 s; Paw Latency (Sec) above control ([3]; 30 mg/kg po): 6* Sec; Paw Latency (Sec) above control ([3]; 60 mg/kg po): 9* Sec

Question: Which “Nociception, Early Phase” value ([2]; 30 mg/kg po) does the source give for `CNCC[C@H](Oc1cccc2ccccc12)c1cccs1` [Duloxetine] here?
Answer: −49%

Question: And the “Nociception, Late Phase” value ([2]; 30 mg/kg po)?
Answer: −85%*

Question: What about the “Duration of Immobility (% change from ctrl)” value (Behavioural Despair Test; 10 mg/kg ip) of the same compound?
Answer: −6%

Question: And the “Duration of Immobility (% change from ctrl)” value (Behavioural Despair Test; 20 mg/kg ip)?
Answer: −9%

Question: And the “Duration of Immobility (% change from ctrl)” value (Behavioural Despair Test; 40 mg/kg ip)?
Answer: −65* %

Question: What about the “Duration of Immobility (% change from ctrl)” value (Behavioural Despair Test; 80 mg/kg ip) of the same compound?
Answer: −100* %

Question: Which IC50 (CYP 2D6) does the source give for `COc1cccc([C@H]2OCCN(C)Cc3cc(C#N)ccc32)c1` [Example 2, (1R)-8-cyano-5-methyl-1-(3-methoxy)phenyl-1,3,4,6-tetrahydro-5H-benz[f]-2,5-oxazocine] here?
Answer: 9.6 µM

Question: What about the IC50 (NA Transporter; read-out: IC50 vs NRI) of the same compound?
Answer: 3.8 µM

Question: What about the IC50 (5-HT Transporter; read-out: IC50 vs SRI) of the same compound?
Answer: 0.12 µM

Question: What about the “Paw Latency (Sec) above control” value ([3]; 30 mg/kg po) of the same compound?
Answer: 6 s

Question: What about the “Paw Latency (Sec) above control” value ([3]; 60 mg/kg po) of the same compound?
Answer: 1 s

Question: Which IC50 (CYP 2D6) does the source give for `COc1cccc(C2OCCN(C)Cc3cc(C4CC4)ccc32)c1` (stereo not shown) [Example 4, 8-cyclopropyl-5-methyl-1-(3-methoxy)phenyl-1,3,4,6-tetrahydro-5H-benz[f]-2,5-oxazocine] here?
Answer: > 10 µM

Question: What about the IC50 (CYP 2D6; [4]) of the same compound?
Answer: 10 µM

Question: What about the IC50 (NA Transporter; read-out: IC50 as NRI) of the same compound?
Answer: > 1 µM

Question: And the IC50 (NA Transporter; read-out: IC50 vs NRI)?
Answer: > 1 µM

Question: And the IC50 (5-HT Transporter; read-out: IC50 vs SRI)?
Answer: 0.021 µM

Question: What about the “Paw Latency (Sec) above control” value ([3]; 30 mg/kg po) of the same compound?
Answer: 5 s

Question: And the “Paw Latency (Sec) above control” value ([3]; 60 mg/kg po)?
Answer: 5 s

Question: Which “Duration of Immobility (% change from ctrl)” value (Behavioural Despair Test; 32 mg/kg ip) does the source give for `CN(C)CCCN1c2ccccc2CCc2ccccc21` [Imipramine] here?
Answer: −62* %

Question: For `CN1CCOC(c2ccccc2)c2ccccc2C1` (stereo not shown) [Nefopam, reference compound], which “% Reduction in no of retches/vomits” value [1] is on record?
Answer: 96%*

Question: And the “Nociception, Early Phase” value ([2]; 60 mg/kg po)?
Answer: −46%

Question: And the “Nociception, Late Phase” value ([2]; 60 mg/kg po)?
Answer: −26%

Question: And the “Nociception, Early Phase” value ([2]; 100 mg/kg po)?
Answer: −76%*

Question: And the “Nociception, Late Phase” value ([2]; 100 mg/kg po)?
Answer: −68%*
